PubChem BioAssay AID2060895 (Molecular Pharmacology Branch, DTP, NCI, 2025)

System: PDC 899932-113-R3-J6 complex spheroid viability
Test: Anticancer human tumor 899932-113-R3-J6-PDC patient-derived melanoma cell line growth inhibition [RAS]
Details: for IC50: curve of first compound; for viability, T/C: stronger effect = lower value
How it was run: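 Agents were tested in combination matrices in half-log decrements from a top concentration at or near clinical Cmax (10 microM if undetermined). Targets were multi-cell spheroids of tumour lines plus HUVEC and MSC stromal cells.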

[1] = second compound 0.000949 µM, first compound 0.0316 µM
[2] = second compound 0.000949 µM, first compound 0.1 µM
[3] = second compound 0.003 µM, first compound 0.0316 µM
[4] = second compound 0.003 µM, first compound 0.1 µM
[5] = second compound 0.00949 µM, first compound 0.0316 µM
[6] = second compound 0.00949 µM, first compound 0.1 µM
[7] = second compound 0.03 µM, first compound 0.0316 µM
[8] = second compound 0.03 µM, first compound 0.1 µM
[9] = second compound 0.0949 µM, first compound 0.0316 µM
[10] = second compound 0.0949 µM, first compound 0.1 µM
[11] = second compound 0.3 µM, first compound 0.0316 µM
[12] = second compound 0.3 µM, first compound 0.1 µM
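Wherever viability, T/C is given: spheroids exposed to agents for seven days before readout; 100% = DMSO vehicle control wells.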

Molecule `CC(C)n1nc(-c2ccc3oc(N)nc3c2)c2c(N)ncnc21` + CCn1c(-c2cc(N3CCN(C)CC3)cnc2C(C)OC)c2c3cc(ccc31)-c1csc(n1)CC(NC(=O)C1CC1C)C(=O)N1CCCC(N1)C(=O)OCC(C)(C)C2 has an IC50 (second compound 0.000949 µM) of 34.8 nM, an IC50 (second compound 0.003 µM) of under 0.316 nM and an IC50 (second compound 0.00949 µM) of under 0.316 nM. For the same molecule, the IC50 (second compound 0.03 µM) was under 0.316 nM, the IC50 (second compound 0.0949 µM) was under 0.316 nM and the IC50 (second compound 0.3 µM) was under 0.316 nM. The viability, T/C (second compound 0.000949 µM, first compound 0.000316 µM) was 82%, the viability, T/C (second compound 0.000949 µM, first compound 0.001 µM) was 63.3% and the viability, T/C (second compound 0.000949 µM, first compound 0.00316 µM) was 73.7%. The viability, T/C (second compound 0.000949 µM, first compound 0.01 µM) was 65%, the viability, T/C [1] was 51.4% and the viability, T/C [2] was 30.5%. It also gave a viability, T/C (second compound 0.003 µM, first compound 0.000316 µM) of 35.6%, a viability, T/C (second compound 0.003 µM, first compound 0.001 µM) of 40.4% and a viability, T/C (second compound 0.003 µM, first compound 0.00316 µM) of 37%. For the same molecule, the viability, T/C (second compound 0.003 µM, first compound 0.01 µM) was 34.4%, the viability, T/C [3] was 29.1% and the viability, T/C [4] was 18.6%. The viability, T/C (second compound 0.00949 µM, first compound 0.000316 µM) was 4.03%, the viability, T/C (second compound 0.00949 µM, first compound 0.001 µM) was 3.88% and the viability, T/C (second compound 0.00949 µM, first compound 0.00316 µM) was 4.42%. For the same molecule, the viability, T/C (second compound 0.00949 µM, first compound 0.01 µM) was 3.62%, the viability, T/C [5] was 2.93% and the viability, T/C [6] was 2.22%. The viability, T/C (second compound 0.03 µM, first compound 0.000316 µM) was 2.41%, the viability, T/C (second compound 0.03 µM, first compound 0.001 µM) was 2.53% and the viability, T/C (second compound 0.03 µM, first compound 0.00316 µM) was 2.94%. It also gave a viability, T/C (second compound 0.03 µM, first compound 0.01 µM) of 2.25%, a viability, T/C [7] of 2.43% and a viability, T/C [8] of 0.98%. For the same molecule, the viability, T/C (second compound 0.0949 µM, first compound 0.000316 µM) was 2.52%, the viability, T/C (second compound 0.0949 µM, first compound 0.001 µM) was 2.03% and the viability, T/C (second compound 0.0949 µM, first compound 0.00316 µM) was 1.78%. The viability, T/C (second compound 0.0949 µM, first compound 0.01 µM) was 1.41%, the viability, T/C [9] was 1.07% and the viability, T/C [10] was 0.65%. For the same molecule, the viability, T/C (second compound 0.3 µM, first compound 0.000316 µM) was 1.86%, the viability, T/C (second compound 0.3 µM, first compound 0.001 µM) was 1.82% and the viability, T/C (second compound 0.3 µM, first compound 0.00316 µM) was 2.06%. For the same molecule, the viability, T/C (second compound 0.3 µM, first compound 0.01 µM) was 1.52%, the viability, T/C [11] was 1.91% and the viability, T/C [12] was 0.73%.

Molecule `C[C@@H](NC(=O)c1ncnc(N)c1Cl)c1ncc(C(=O)Nc2cc(C(F)(F)F)c(Cl)cn2)s1` + CCn1c(-c2cc(N3CCN(C)CC3)cnc2C(C)OC)c2c3cc(ccc31)-c1csc(n1)CC(NC(=O)C1CC1C)C(=O)N1CCCC(N1)C(=O)OCC(C)(C)C2 has an IC50 (second compound 0.000949 µM) of 5630 nM, an IC50 (second compound 0.003 µM) of 2600 nM and an IC50 (second compound 0.00949 µM) of under 31.6 nM. The IC50 (second compound 0.03 µM) was under 31.6 nM, the IC50 (second compound 0.0949 µM) was under 31.6 nM and the IC50 (second compound 0.3 µM) was under 31.6 nM. The viability, T/C [1] was 104%, the viability, T/C [2] was 113% and the viability, T/C (second compound 0.000949 µM, first compound 0.316 µM) was 124%. For the same molecule, the viability, T/C (second compound 0.000949 µM, first compound 1 µM) was 127%, the viability, T/C (second compound 0.000949 µM, first compound 3.16 µM) was 82% and the viability, T/C (second compound 0.000949 µM, first compound 10 µM) was 18.2%. It also gave a viability, T/C [3] of 66.6%, a viability, T/C [4] of 76.1% and a viability, T/C (second compound 0.003 µM, first compound 0.316 µM) of 83.8%. For the same molecule, the viability, T/C (second compound 0.003 µM, first compound 1 µM) was 82.1%, the viability, T/C (second compound 0.003 µM, first compound 3.16 µM) was 44.4% and the viability, T/C (second compound 0.003 µM, first compound 10 µM) was 12%. It also gave a viability, T/C [5] of 8.34%, a viability, T/C [6] of 12.9% and a viability, T/C (second compound 0.00949 µM, first compound 0.316 µM) of 15.3%. The viability, T/C (second compound 0.00949 µM, first compound 1 µM) was 13.6%, the viability, T/C (second compound 0.00949 µM, first compound 3.16 µM) was 9.29% and the viability, T/C (second compound 0.00949 µM, first compound 10 µM) was 4.48%. It also gave a viability, T/C [7] of 3.38%, a viability, T/C [8] of 2.96% and a viability, T/C (second compound 0.03 µM, first compound 0.316 µM) of 2.78%. The viability, T/C (second compound 0.03 µM, first compound 1 µM) was 2.66%, the viability, T/C (second compound 0.03 µM, first compound 3.16 µM) was 2.41% and the viability, T/C (second compound 0.03 µM, first compound 10 µM) was 2.96%. The viability, T/C [9] was 2.75%, the viability, T/C [10] was 2.95% and the viability, T/C (second compound 0.0949 µM, first compound 0.316 µM) was 2.73%. It also gave a viability, T/C (second compound 0.0949 µM, first compound 1 µM) of 2.82%, a viability, T/C (second compound 0.0949 µM, first compound 3.16 µM) of 2.56% and a viability, T/C (second compound 0.0949 µM, first compound 10 µM) of 2.32%. The viability, T/C [11] was 2.53%, the viability, T/C [12] was 2.03% and the viability, T/C (second compound 0.3 µM, first compound 0.316 µM) was 2.73%. For the same molecule, the viability, T/C (second compound 0.3 µM, first compound 1 µM) was 2.35%, the viability, T/C (second compound 0.3 µM, first compound 3.16 µM) was 3.08% and the viability, T/C (second compound 0.3 µM, first compound 10 µM) was 2.77%.
